In data set [1] the target is T1, FTO (Homo sapiens (Human), UniProt Q9C0B1). The experiment in a line: Fluorescence enzymatic inhibition assay (m6A7-Broccoli RNA / DFHBI-1T) against FTO. The class given is biochemical. In a few lines:
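m6A7-Broccoli RNA demethylated by FTO with 300 μM 2-oxoglutarate, 300 μM Fe(II), 2 mM ascorbate in 50 mM NaHEPES pH 6, 2 h at room temperature; inhibitors 0.008-40 μM, 0.2% DMSO. DFHBI-1T fluorescence after 16 h at 4 °C; sigmoidal dose-response fits, triplicate.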

The target of data set [2] is T2, ALKBH5 (Homo sapiens (Human), UniProt Q6P6C2). Kind of data set: Fluorescence enzymatic inhibition assay (m6A7-Broccoli RNA / DFHBI-1T) against ALKBH5. Format: biochemical. Conditions: Table 700 compounds; read-out: Enzymatic IC50 ALKBH5. In a few lines:
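Inhibitors were tested at 0.008–40 μM in a final 0.2% DMSO, with 2 h incubation at room temperature. Plates were then held at 4 °C for 16 h so that DFHBI-1T could bind A7-Broccoli RNA, giving a fluorescence read-out. IC50 values come from sigmoidal dose-response fits of triplicates.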

Data set [3] deals with T2, ALKBH5. Kind of data set: Michaelis-Menten kinetics against ALKBH5. The class given is biochemical.
For a further data set, the system named is B16 cells. Kind of data set: B16 cell proliferation assay with ALKBH5 inhibitor. As to conditions: 10, 30 and 50 μM ALKBH5 inhibitor vs DMSO. The class given is cell-based, mouse. As to the method:
B16 cells were plated at a density of 2000/well in 96-well plates in triplicate and incubated for 0, 2, 4, or 6 days before cell numbers were determined by manual counting or by using a CellTiter AQueous One Solution Cell Proliferation Assay kit (Promega).
Our results thus far indicate that loss f-m6A demethylase Alkbh5, in B16 melanoma cells, potentiates the efficacy of GVAX/anti-PD-1 therapy. To identify clinically relevant pharmacological inhibitors of Alkbh5, we have identified a specific inhibitor of ALKBH5, named ALK-04, by in silico screening of compounds using the X-ray crystal structure of ALKBH5 (PDB ID code 4NRO) and by performing structure-activity relationship studies on a library of synthesized compounds. […] Next, we compared tumor growth of control and inhibitor-treated mice during immunotherapy.

The subject of another data set is B16 melanoma tumors. Kind of data set: B16 melanoma mouse model, GVAX/anti-PD-1 immunotherapy with ALKBH5 inhibitor. The class given is in vivo. Conditions: combined with PD-1 Ab and GVAX, vs control. As to the method:
Animal studies and procedures were approved by the UCSD Institutional Animal Care and use Committee. Female C57BL/6J wild-type mice were obtained from The Jackson Laboratory and housed in the UCSD specific-pathogen free facility. 86.129S2-Tcratm1Mcrn/J (Tcra+) mice, which are CDC and CDB· T cell deficient, were obtained from The Jackson Laboratory and bred on-site. For the standard protocol, mice (aged 9-12 weeks at use) were injected subcutaneously (s.c.) with 5×10^5 B16 cells (NTC control, Fto-KO, or Alkbh5-KO, generated as described below) into the left flank on day 0, and then injected with 1 OE irradiated (100 GY) BIG-GM CSF cells (GVAX) into the opposite flank on days 1 and 4 to elicit an anti-tumor immune response. Mice were then injected intraperitoneally (i p.) with 10 mg/kg (−200 pgimouse) of rat monoclonal anti-mouse RD-I Ab (Bio X Cell, clone 29F. IA 12) on the days as indicated on the figures. For PD-1 Ab treatment alone, mice were implanted with B16 cells and treated with antibody on day 6, 9 and 12. For the Treg depletion experiments, mice were injected as described above and were additionally injected i.p. vittl rat anti-mouse CD25 Ab (Bio X Cell, clone 7D4) on day 11. Tumors were measured every 3 days beginning on day 7. […]

Data set [4] can be described thus: elogD / log D determination. As to conditions: Table 700 compounds.
Data set [5] concerns the target T2, ALKBH5. Conditions: reported from Huang et. al 2019; read-out: Enzymatic IC50 ALKBH5; cited from earlier work.
For a further data set, the system named is MONOMAC6 and NB4 cells. Conditions: Huang et. al; cited from earlier work.
In data set [6] the target is T1, FTO. The experiment in a line: ELISA-based FTO inhibition assay (orthogonal control). Format: biochemical. As to conditions: biotinylated m6A-RNA, 0-40 μM inhibitor; read-out: IC50 against FTO by ELISA assay.
Method: The reaction mixture was then incubated with neutravidin coated 96-well plates overnight at 4° C., washed and blocked, incubated with m^6 A-specific antibody for 1 hour at room temperature, washed and blocked, and incubated with horseradish peroxidase-conjugated secondary antibody for 1 hour at room temperature. After extensive washing, the wells were treated with 3,3′,5,5′-tetramethylbenzidine (TMB) for 30 minutes at room temperature and the absorbance was measured at 390 nm. Absorbance was normalized to control wells for each concentration of inhibitor without cofactor 2-oxoglutarate to control for non-specific antibody binding, and the data were fit to a sigmoidal dose-response curve in GraphPad Prism 6.
The reaction mixture was then incubated with neutravidin coated 96-well plates (Pierce) overnight at 4° C., washed and blocked, incubated with m6A -specific primary antibody (Abcam ab151230, 1:400 dilution) for 1 hour at room temperature, washed and blocked (phosphate buffer saline with 0.1% tween-20 (PBST); blocked in 5% of non-fat milk in PBST buffer), and incubated with horseradish peroxidase-conjugated secondary antibody (Sigma-Aldrich, A6154, 1:5000 dilution) for 1 hour at room temperature. […]
The target in data set [7] is T1, FTO. The experiment in a line: Steady-state (Michaelis-Menten) inhibition kinetics of FTO. The class given is biochemical. Conditions: velocity and double reciprocal plots, 0-40 μM inhibitor, substrate 0-10 μM.
Data set [8] relates to TS576 glioblastoma stem cells. Kind of data set: Neurosphere (tumorosphere) formation assay, TS576. Format: cell-based, human. Conditions: 2 days. As to the method:
To understand the effects of our FTO inhibitors on the self-renewal properties of GSCs, tumorospheres cultured from the patient-derived GSC line TS576 were treated with 30 μM of FTO-04, FTO-10, FTO-11, or FTO-12 (FIG. 4-3AB; cell line gifted from the Furnari lab)^0.45, 46 The GSCs were cultured in sphere-forming assays for 24 hours, then treated with either inhibitors or DMSO control for 2 days. The size of the tumorospheres was calculated using ImageJ.
Early passaged GSCs were used to understand the efficacy of ALK-04 on the self-renewal capacity of GSCs by tumorsphere-formation assay as described earlier^10, 11. In brief, GSCs were seeded at 4×10^4 cells in 24 well plate and cultured for 3 days followed by treatment with ALK-04 inhibitors at 20 μM daily for 3 days. After 3 days of treatment the images of the tumorospheres were imaged with phase contrast microscope and size was measured with Image J, to understand the effects of drugs on the self-renewal of GSCs on sphere formation. This process was also repeated for healthy neural stem cells (hNSCs) treated daily with 20 μM ALK-04 for three days to assess the therapeutic ratio.

Data set [9] has as its system GBM-GSC-23 glioblastoma stem cells. The experiment in a line: Neurosphere (tumorosphere) formation assay, GBM-GSC-23. The class given is cell-based, human. As to conditions: GSC-23, 20 μM, 2 days.
Data set [10] deals with GBM-6 glioblastoma stem cells. The experiment in a line: Neurosphere (tumorosphere) formation assay, GBM-6. The class given is cell-based, human. As to conditions: GBM-6, 20 μM, 2 days.
Data set [11] relates to human neural stem cells (hNSC). Kind of data set: Neurosphere formation assay, healthy neural stem cells. Format: cell-based. Conditions: 20 μM, 2 days.
Data set [12] has as its system m6A mRNA levels in TS576 cells. Kind of data set: m6A dot blot assay on poly(A)+ mRNA. Format: cell-based, human. As to conditions: TS576 poly(A)+ mRNA, 2, 10, 50 ng, vs DMSO or shControl. As to the method:
Next, we sought to determine if FTO-04 was able to alter m6A levels in purified mRNA from GSCs by m6A dot blot assay. TS576 cells were treated with 2, 10, and 50 ng shControl or shFTO to establish the relative change in m6A mRNA levels due to FTO knockdown. […] TS576 cells were then treated with 2, 10, and 50 ng of either DMSO or FTO-04 (FIG. 4-33B).
Polyadenylated mRNA were isolated from TS576 cells treated with either DMSO, FTO-04 (30 μM), and control (shControl) or FTO lentivirus (shFTO) knockdown samples by using Magnetic mRNA Isolation Kit (New England Biolabs, S1550S). Isolated mRNA was quantified, serially diluted and denatured at 95° C. for 3 min, then chilled on ice to prevent reformation of secondary structure of mRNA. Denatured mRNA samples were spotted on an Amersham Hybond-N^+ membrane (GE Healthcare, RPN3050B) and cross-linked to the membrane with UV radiation. After crosslinking the membrane was washed with phosphate buffer saline with 0.1% tween-20 (PBST) and blocked in 5% of non-fat milk in PBST buffer, and then incubated with anti-m^6 A antibody (1:1000; abcam) overnight at 4° C. The membrane was then washed as before and incubated in HRP-conjugated secondary antibodies for 1 h at room temperature. The membrane was then developed with Thermo ECL SuperSignal West Femto Maximum Sensitivity Substrate (Thermo Fisher Scientific).

“Also recorded” adds a separate entry of the source. Read-outs that look alike come from different tables or passages of the source.

T1 sequence (Q9C0B1 whole entry): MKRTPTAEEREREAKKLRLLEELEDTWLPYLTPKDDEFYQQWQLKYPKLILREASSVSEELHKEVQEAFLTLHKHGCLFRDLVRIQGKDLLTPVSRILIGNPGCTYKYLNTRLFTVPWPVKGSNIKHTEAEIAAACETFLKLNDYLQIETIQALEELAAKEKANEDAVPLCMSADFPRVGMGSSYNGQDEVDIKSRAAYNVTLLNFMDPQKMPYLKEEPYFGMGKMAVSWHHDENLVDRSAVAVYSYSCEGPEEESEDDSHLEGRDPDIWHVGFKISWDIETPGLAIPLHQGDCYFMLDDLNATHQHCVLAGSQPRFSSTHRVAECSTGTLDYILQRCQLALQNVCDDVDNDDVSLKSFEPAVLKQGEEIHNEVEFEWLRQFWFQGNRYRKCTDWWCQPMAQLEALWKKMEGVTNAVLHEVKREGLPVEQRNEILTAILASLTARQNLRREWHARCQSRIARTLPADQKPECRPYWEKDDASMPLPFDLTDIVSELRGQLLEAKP
T2 sequence (Q6P6C2 whole entry): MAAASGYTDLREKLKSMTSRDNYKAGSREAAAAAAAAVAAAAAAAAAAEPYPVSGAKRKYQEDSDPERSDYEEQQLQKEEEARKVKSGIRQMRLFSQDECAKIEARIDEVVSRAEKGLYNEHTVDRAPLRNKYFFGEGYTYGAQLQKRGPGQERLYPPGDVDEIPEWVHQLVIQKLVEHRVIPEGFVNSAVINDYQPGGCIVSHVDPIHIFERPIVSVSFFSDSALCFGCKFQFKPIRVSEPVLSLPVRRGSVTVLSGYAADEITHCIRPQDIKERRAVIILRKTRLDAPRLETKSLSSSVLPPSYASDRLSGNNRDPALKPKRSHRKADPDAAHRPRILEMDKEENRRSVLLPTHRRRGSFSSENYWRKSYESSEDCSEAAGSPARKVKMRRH

Take `CC(C)(C)OC(=O)N1CSC[C@@H]1CN` [ALK-04]: the IC50 was greater than 40000 nM at FTO [1] (Table 700 compounds, read-out: Enzymatic IC50 FTO) and 900 ± 700 nM on ALKBH5 [2]. The “mechanism of inhibition of ALKBH5” value at ALKBH5 [3] is “competitive inhibitor”. Moreover, the B16 cell proliferation result in the data set with B16 cells was “not significantly affected”. Also, the “B16 tumor growth during immunotherapy” value in the data set on B16 melanoma tumors is on record as “significantly reduced tumor growth”. The compound also had an elogD in data set [4] of 0.29.

With `Cc1noc(C)c1-c1cc(Cl)c(Nc2ccccc2C(=O)NO)c(Cl)c1` [FB23-2], the IC50 at ALKBH5 [5] was greater than 40000 nM. The “cellular concentration relative to FB23 (fold)” value with MONOMAC6 and NB4 cells was 3-10.

Consider `COc1ncc(-c2ccc3nc(N)sc3c2)cn1` [FTO-04], for which the “potency against FTO relative to MA (fold)” value at FTO [1] (IC50 compared with MA (12.5)) is “approximately 4”. Besides, the IC50 on FTO [6] was 2790 ± 1300 nM. Moreover, the “mechanism of inhibition of FTO” value on FTO [7] is listed as “competitive inhibitor; also recorded: competitive mechanism of inhibition”. For the same compound, the size of tumorospheres result is “significantly decrease the size of tumorospheres” in [8] (TS576, 20 μM); “significant reduction in size of the tumorospheres” in [8] (TS576, 30 μM inhibitor, vs vehicle control); “significantly decrease the size of tumorospheres” in [9]; “significantly decrease the size of tumorospheres” in [10]. Besides, in data set [11], the “neurosphere size / formation” value is given as “without impairing hNSC neurosphere growth; also recorded: no alteration in neurosphere size; also recorded: without significantly altering hNSC neurosphere formation”. Besides, the “m6A mRNA levels (dot blot)” value in data set [12] is listed as “increase m6A mRNA levels significantly; also recorded: increases m6A mRNA levels”.

The values are drawn from patent US20230322715A1, “BROAD SPECTRUM ANTI-CANCER COMPOUNDS” (The Regents of the University of California, priority 2019, published 2023).
